Results published in the NIST ThermoML archive (doi:10.1021/je3013342).

Tests used:
[1] = 101 kPa, Liquid, Vibrating tube method
[2] = xn = mol fraction of the nth substance listed; conditions: 101 kPa, Liquid, Vibrating tube method

CCCCCCl [1-chloropentane]
[1]
Conditions	mass density [kg/m3]
298.15 K	877.09
308.15 K	866.97
318.15 K	856.73

CCCCCCl [1-chloropentane] + C[N+](=O)[O-]
mass density [kg/m3], [2]
Conditions	x1 = 0.1043	x1 = 0.1721	x1 = 0.2575	x1 = 0.3466	x1 = 0.4525	x1 = 0.5435	x1 = 0.6864	x1 = 0.8325	x1 = 0.8859	x1 = 1
298.15 K	1075.06	1045.39	1014.58	987.6	960.73	941.21	916.34	895.75	889.18	877.09
308.15 K	1062.09	1032.77	1002.33	975.7	949.19	929.96	905.49	885.27	878.82	866.97
318.15 K	1048.99	1020.02	989.95	963.67	937.53	918.59	894.51	874.65	868.33	856.73

C[N+](=O)[O-] [nitromethane]
[1]
Conditions	mass density
298.15 K	1130.9 kg/m3 [middle of 5 runs]
308.15 K	1117.28 kg/m3 [middle of 6 runs]
318.15 K	1103.53 kg/m3 [middle of 6 runs]

C[N+](=O)[O-] [nitromethane] + CC(Cl)(Cl)Cl
[2], x2 = 0
Conditions	mass density [kg/m3]
298.15 K	1130.91
308.15 K	1117.29
318.15 K	1103.55

C[N+](=O)[O-] [nitromethane] + CCCCCCl
[2], x2 = 0
Conditions	mass density [kg/m3]
298.15 K	1130.86
308.15 K	1117.23
318.15 K	1103.48

C[N+](=O)[O-] [nitromethane] + CCCCCl
mass density [kg/m3], [2]
Conditions	x2 = 0	x2 = 0.1107	x2 = 0.2174	x2 = 0.3236	x2 = 0.3932	x2 = 0.4856	x2 = 0.5569	x2 = 0.6626	x2 = 0.7722	x2 = 0.8646
298.15 K	1130.76	1080.18	1040.11	1007.02	987.92	965.38	949.92	929.96	911.75	898.07
308.15 K	1117.14	1067	1027.27	994.47	975.54	953.21	937.92	918.09	900.15	886.65
318.15 K	1103.39	1053.7	1014.29	982.09	963.01	940.87	925.76	906.2	888.4	875.07

C[N+](=O)[O-] [nitromethane] + ClC(Cl)C(Cl)Cl
[2], x2 = 0
Conditions	mass density [kg/m3]
298.15 K	1130.86
308.15 K	1117.24
318.15 K	1103.5

C[N+](=O)[O-] [nitromethane] + ClC(Cl)Cl
mass density [kg/m3], [2]
Conditions	x2 = 0	x2 = 0.1197	x2 = 0.1772	x2 = 0.3007	x2 = 0.4009	x2 = 0.5	x2 = 0.5978	x2 = 0.7194	x2 = 0.8607	x2 = 0.9562
298.15 K	1130.86	1189.05	1214.82	1265.96	1303.55	1337.74	1368.78	1404.19	1441.14	1463.58
308.15 K	1117.24	1174.6	1200	1250.36	1287.37	1321	1351.55	1386.34	1422.65	1444.71
318.15 K	1103.5	1160.01	1185.02	1234.59	1271	1304.11	1334.09	1368.25	1403.89	1425.56

C[N+](=O)[O-] [nitromethane] + ClCCCCCl
[2], x2 = 0
Conditions	mass density [kg/m3]
298.15 K	1130.95
308.15 K	1117.32
318.15 K	1103.57

C[N+](=O)[O-] [nitromethane] + ClCCCCl
[2], x2 = 0
Conditions	mass density [kg/m3]
298.15 K	1130.9
308.15 K	1117.28
318.15 K	1103.53

C[N+](=O)[O-] [nitromethane] + ClCCCl
mass density [kg/m3], [2]
Conditions	x2 = 0	x2 = 0.1132	x2 = 0.2235	x2 = 0.3249	x2 = 0.4672	x2 = 0.5586	x2 = 0.6264	x2 = 0.7349	x2 = 0.857	x2 = 0.923
298.15 K	1130.86	1147.31	1162.54	1175.69	1192.94	1203.25	1210.49	1221.8	1233.37	1239.2
308.15 K	1117.24	1133.59	1148.71	1161.77	1178.89	1189.11	1196.29	1207.48	1218.91	1224.67
318.15 K	1103.5	1119.73	1134.75	1147.71	1164.69	1174.81	1181.96	1192.99	1204.28	1209.97

ClC(Cl)Cl [trichloromethane]
[1]
Conditions	mass density [kg/m3]
298.15 K	1473.42
308.15 K	1454.33
318.15 K	1434.98

ClC(Cl)Cl [trichloromethane] + C[N+](=O)[O-]
[2], x1 = 1
Conditions	mass density [kg/m3]
298.15 K	1473.42
308.15 K	1454.33
318.15 K	1434.98
